Source: BindingDB's records for doi:10.1016/j.bioorg.2005.08.001 (Texas A&M University, 2005)

Biological target: T1, Dihydroorotase (Escherichia coli (strain K12), UniProt P05020)
T1 sequence (P05020 whole entry): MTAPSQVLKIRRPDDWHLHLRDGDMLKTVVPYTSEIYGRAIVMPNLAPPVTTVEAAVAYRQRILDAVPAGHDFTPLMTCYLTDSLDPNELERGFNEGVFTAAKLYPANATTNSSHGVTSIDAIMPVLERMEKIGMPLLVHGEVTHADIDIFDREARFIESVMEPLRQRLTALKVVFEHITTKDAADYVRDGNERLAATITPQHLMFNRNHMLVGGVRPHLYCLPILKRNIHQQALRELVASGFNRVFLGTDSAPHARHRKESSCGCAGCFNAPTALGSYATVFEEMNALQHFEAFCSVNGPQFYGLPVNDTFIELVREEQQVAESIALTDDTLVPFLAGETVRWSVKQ
Assay: Inhibition Assay
Details: pH 7
Text: The DHO-catalyzed hydrolysis of dihydrooroate was monitored spectrophotoetrically at 230 and 280 nm using a SPECTRAmax (Molecular Device) plate reader.

## O=C1CC(=O)N[C@H](C(=O)O)C1 [4,6-dioxo-piperidine-2-carboxylic acid, 3]
  Ki: 76 mM
